Assay results reported in US20220380432A1, “Acylated Calcitonin Mimetics” (KeyBioscience AG, priority 2018, published 2022).
Numbered stars: 1 amine (or outer) side, 2 acyl side, 3 side chain; on linkers, the order of the positions; unused ones are H or OH. Bridge positions count the residues as written; N and C are the ends. Square brackets hold non-standard residues; d marks the D form. Side chains are listed from the residue outwards. Ends that are not written are not given here. Peptide text beside a SMILES is read from it. * marks the point of attachment. C18 diacid = O=C(O)CCCCCCCCCCCCCCCCC(=O)*; γGlu = O=C(O)[C@H](CCC(=O)[*:2])N[*:1]; AEEA = NCCOCCOCC(=O)O; Aib = CC(C)(N)C(=O)O

T1: Calcitonin Receptor (CTR) (Homo sapiens (Human), UniProt P30988)
T1 sequence: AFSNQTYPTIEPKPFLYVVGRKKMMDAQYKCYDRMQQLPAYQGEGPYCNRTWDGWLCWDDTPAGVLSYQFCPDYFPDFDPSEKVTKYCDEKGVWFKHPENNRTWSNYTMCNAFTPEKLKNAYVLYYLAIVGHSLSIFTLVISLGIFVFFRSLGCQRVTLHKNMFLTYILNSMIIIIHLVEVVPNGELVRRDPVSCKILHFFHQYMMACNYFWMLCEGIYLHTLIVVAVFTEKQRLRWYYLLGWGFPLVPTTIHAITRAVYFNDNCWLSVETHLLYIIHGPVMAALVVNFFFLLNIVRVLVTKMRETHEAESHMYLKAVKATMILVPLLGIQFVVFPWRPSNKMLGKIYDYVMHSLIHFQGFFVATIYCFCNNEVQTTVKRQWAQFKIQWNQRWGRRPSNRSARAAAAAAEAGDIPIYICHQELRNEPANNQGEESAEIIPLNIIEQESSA

T2: Amylin Receptor (AMY-R) (Homo sapiens (Human), UniProt P30988)
T2 sequence 1: T1 sequence
T2 sequence 2: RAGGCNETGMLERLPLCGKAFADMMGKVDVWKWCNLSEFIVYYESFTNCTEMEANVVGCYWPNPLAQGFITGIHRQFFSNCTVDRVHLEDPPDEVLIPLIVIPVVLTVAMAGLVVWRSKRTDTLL


Experiments:
20 week HFD SD rats = test: Single dose food intake and body weight test in HFD SD rats (Examples 3, 4, 5, 8, 10, 12); assay type: in vivo, rat; conditions: for Food Intake ΔFOOD Sustained Attenuation (4 nmol/kg) Hours: Table 4.4: acylation linkers, backbone KBP-066, single s.c. dose 4 nmol/kg, HFD SD rats; for Food Intake ΔFOOD Sustained Attenuation (36 nmol/kg) Hours: 36 nmol/kg single dose
Source text: In the animal model studies, 12 week healthy Sprague Dawley (SD) rats were used to assess the potency of the acylated KBPs. In some examples they were fed normal chow during prior and during the tests, whereas in other examples, the 12 week healthy SD rats were fed high fat diet (HFD) for eight weeks prior to the test and for the duration of the test.
(§1) Rats were single caged four days prior to the test. Rats were randomized by weight into eleven groups (Vehicle (0.9% NaCl), KBPs (doses: 36 nmol/kg (150-157 μg/kg)). They were fasted overnight and then treated with a single dose of peptide or vehicle in the morning using subcutaneous administration. Food intake was monitored in the following intervals (0-4 hours, 4-24 hours, 24-48 hours . . . 144-168 hours). Body weight was measured at baseline and every 24 hours post s.c injection.
as §1, with “(doses: 4 nmol/kg (^17 μg/kg), 12 nmol/kg (^50 μg/kg) or” for “(doses:”, “([…]” for “(150-157”
Single high dose effect of A11/3 acylated variants of KBP-042 and KBP-066 on food intake and body weight in 20 week HFD SD rats. Rats were single caged four days prior to the test. Rats were randomized by weight into eleven groups (Vehicle (0.9% NaCl), KBPs (doses: 300 nmol/kg (^1000 μg/kg)).
The rats were fasted overnight and then treated with a single dose of peptide or vehicle in the morning using subcutaneous administration. Food intake was monitored in the following intervals (0-4 hours, 4-24 hours, 24-48 hours . . . […]). Body weight was measured at baseline and every 24 hours post s.c injection.
(§2) Rats were single caged four days prior to the test. Rats were randomized by weight into eight groups (Vehicle (0.9% NaCl), KBPs (doses: 3 nmol/kg (^10-11 μg/kg)). They were fasted overnight and then treated with a single dose of peptide or vehicle in the morning using subcutaneous administration. Food intake was monitored in the following intervals (0-4 hours, 4-24 hours, 24-48 hours, 48-72 hours, and 72-96 hours). Body weight was measured at baseline and at 4 hour, 24 hours, 48 hours, 72 hours and 96 hours post s.c injection.
as §2, with “4” for “3”, “s.c.” for “s.c”, “injection. Two backbones were tested, KBP-066 and KBP-021.” for “injection.”
as §2, with “4” for “3”, “(^13-14” for “(^10-11”

[1] = Thioflavin T (ThT) fibrillation screening assay; assay type: physicochemical; conditions: for Peptide Fibrillation Thioflavin T ΔFluorescence 18 h Assay Score: Table 4.4: acylation linkers, backbone KBP-066, tier from 18 h fluorescence signal, 37° C.
Description: Thioflavin T (T3516, Sigma). Assay stock ThT is prepared as a 10 mM solution in 5 mM sodium phosphate pH 7.2. Aliquots are stored, protected from light, at −20° C. Stock ThT is thawed and diluted just prior to use.
For the tested calcitonin mimetics (hereinafter referred to as “acylated KBPs” or simply “KBPs”), final buffer conditions are 10 mM Tris-HCl pH 7.5.
The final peptide concentration in the wells should be 100-200 μM, and the final ThT concentration should be 4 μM. ThT is added last (10 μL).
Thioflavin T assays were also conducted. Thioflavin T (ThT) is a dye widely used for the detection of amyloid fibrils. In the presence of fibrils, ThT has an excitation maximum at 450 nm and enhanced emission at 480 nm, whereas ThT is essentially non-fluorescent at these wavelengths when not bound to amyloid fibrils.
Thus, ThT in combination with a fluorescent plate reader is an ideal tool for screening large numbers of in vitro samples for the presence of amyloid fibrils. […]
The plate is loaded into a fluorescent plate reader, such as a SpectraMax with SoftMax Pro 7.0.2 software, and the template set to 37° C. with excitation wavelength at 450 nm and emission wavelength at 480 nm.
Plate reader should measure fluorescence every 10 minutes for 24 hours with a five-second plate shake before the first read and a three-second plate shake before all other reads. Alternatively, the plate is read after the following incubation times; 0, 1, 2, 4 and 24 hours.
Plot relative fluorescence units (RFU) as a function of time. Fibrillation is determined as an increase in RFU over baseline as described by Nielsen et. al.
In this filing four fibrillations tiers have been defined based on the 18 h fluorescence signal to get a single output that reflects the peptides fibrillation potential: None=<1000 RFU, Low=1000-3000 RFU, Medium=3000-10000, High=>10000

[2] = target: T1, Calcitonin Receptor (CTR); test: cell-based or functional assay
Amylin Receptor (AMY-R) = target: T2, Amylin Receptor (AMY-R); test: cell-based or functional assay

Molecule	Food Intake ΔFOOD Sustained Attenuation (36 nmol/kg) Hours (20 week HFD SD rats) [h]	β-arrestin Fold Recruitment EC50 values (10^-9 M) [2] [nM]	β-arrestin Prolonged CTR response (10 nM) tAUC value 0-72 h [2]	β-arrestin Fold Recruitment EC50 values (10^-09 M) (Amylin Receptor (AMY-R)) [nM]	further results
CC(=O)N[C@H]1CSSC[C@@H](C(=O)NC(C)(C)C(=O)N[C@@H](CC(C)C)C(=O)NCC(=O)N[C@@H](CCCCNC(=O)COCCOCCNC(=O)CC[C@H](NC(=O)CCCCCCCCCCCCCCCCC(=O)O)C(=O)O)C(=O)N[C@@H](CC(C)C)C(=O)N[C@@H](CO)C(=O)N[C@@H](CCC(N)=O)C(=O)N[C@@H](CC(=O)O)C(=O)N[C@@H](CC(C)C)C(=O)N[C@@H](Cc2c[nH]cn2)C(=O)N[C@@H](CCCNC(=N)N)C(=O)N[C@@H](CC(C)C)C(=O)N[C@@H](CCC(N)=O)C(=O)N[C@H](C(=O)N[C@@H](Cc2ccc(O)cc2)C(=O)N2CCC[C@H]2C(=O)N[C@@H](CCCCN)C(=O)N[C@H](C(=O)N[C@@H](CC(=O)O)C(=O)N[C@H](C(=O)NCC(=O)N[C@@H](C)C(=O)N[C@@H](CC(N)=O)C(=O)N[C@@H](C)C(=O)N2CCC[C@H]2C(N)=O)C(C)C)[C@@H](C)O)[C@@H](C)O)NC(=O)[C@H]([C@@H](C)O)NC(=O)[C@H](CO)NC(=O)[C@H](CC(C)C)NC(=O)[C@H](CC(N)=O)NC(=O)[C@H](CO)NC1=O [KBP-384] (Ac-CSNLSTC[Aib]LGK([AEEA-γGlu-C18 diacid])LSQDLHRLQTYPKTDVGANAP-NH2; disulfide 1-7 (inferred))	–	–	–	–	Food Intake ΔFOOD Sustained Attenuation (4 nmol/kg) Hours (20 week HFD SD rats): 72 h; fibrillation tier (score in the ThT assay) ([1]; 18 h fluorescence signal): low; Peptide Fibrillation Thioflavin T ΔFluorescence 18 h Assay Score [1]: Low (Low=1000-3000 RFU)
CC(=O)N[C@H]1CSSC[C@@H](C(=O)NC(C)(C)C(=O)N[C@@H](CC(C)C)C(=O)NCC(=O)N[C@@H](CCCCNC(=O)COCCOCCNC(=O)COCCOCCNC(=O)COCCOCCNC(=O)CC[C@H](NC(=O)CCCCCCCCCCCCCCCCC(=O)O)C(=O)O)C(=O)N[C@@H](CC(C)C)C(=O)N[C@@H](CO)C(=O)N[C@@H](CCC(N)=O)C(=O)N[C@@H](CC(=O)O)C(=O)N[C@@H](CC(C)C)C(=O)N[C@@H](Cc2c[nH]cn2)C(=O)N[C@@H](CCCNC(=N)N)C(=O)N[C@@H](CC(C)C)C(=O)N[C@@H](CCC(N)=O)C(=O)N[C@H](C(=O)N[C@@H](Cc2ccc(O)cc2)C(=O)N2CCC[C@H]2C(=O)N[C@@H](CCCCN)C(=O)N[C@H](C(=O)N[C@@H](CC(=O)O)C(=O)N[C@H](C(=O)NCC(=O)N[C@@H](C)C(=O)N[C@@H](CC(N)=O)C(=O)N[C@@H](C)C(=O)N2CCC[C@H]2C(N)=O)C(C)C)[C@@H](C)O)[C@@H](C)O)NC(=O)[C@H]([C@@H](C)O)NC(=O)[C@H](CO)NC(=O)[C@H](CC(C)C)NC(=O)[C@H](CC(N)=O)NC(=O)[C@H](CO)NC1=O [KBP-385] (Ac-CSNLSTC[Aib]LGK([AEEA-AEEA-AEEA-γGlu-C18 diacid])LSQDLHRLQTYPKTDVGANAP-NH2; disulfide 1-7 (inferred))	–	–	–	–	Food Intake ΔFOOD Sustained Attenuation (4 nmol/kg) Hours (20 week HFD SD rats): 72 h; Peptide Fibrillation Thioflavin T ΔFluorescence 18 h Assay Score [1]: None (None=<1000 RFU)
KBP-372: KBP-042 core, A11/3 acylation (Ac-CSNLSTCVLGKLSQELHKLQTYPRTDVGANAP-NH2; not fully specified (residue 11); ends and bridges not checked)	96	–	–	–	protracted in vivo efficacy, high dose test (in words) (20 week HFD SD rats; single s.c. dose 300 nmol/kg): superior protracted in vivo efficacy that lasted for days
KBP-374: KBP-042 core with added C-terminal acylated lysine (A32 type, Table 1) (Ac-CSNLSTCVLGKLSQELHKLQTYPRTDVGANAPK; not fully specified (residue 33); ends and bridges not checked)	72	–	–	–	–
KBP-377: KBP-089 core, A32/3 acylation (Ac-CSNLSTCMLGRLSQDLHRLQTYPKTDVGANAPK; not fully specified (residue 33); ends and bridges not checked)	72	–	–	–	–
Ac-CSNLSTCMLGRLSQDLHRLQTYPKTDVGANAPK (not fully specified (residue 33); ends and bridges not checked) [KBP-377]	–	66	1400	73.1	–
Ac-CSNLSTCVLGKLSQELHKLQTYPRTDVGANAP-NH2 (not fully specified (residue 11); ends and bridges not checked) [KBP-372]	–	7.8	1300	45.6	–
Ac-CSNLSTCVLGKLSQELHKLQTYPRTDVGANAPK (not fully specified (residue 33); ends and bridges not checked) [KBP-374]	–	49.2	1070	151	–
